{
  "source": "patent US20230241027A1",
  "about": "“DIALKYL T[…] THEIR […] USES” (CAAMTECH, INC., priority 2020, published 2023)",
  "test": "hydrolysis of the compound into its active (dissolved in water, followed by NMR)",
  "data": [
    {"smiles": "CN(C)CCc1c[nH]c2cccc(OP(=O)(O)O)c12", "note": "[Psilocybin]", "values": [
      {"measurement": "half-life", "value": "< 365", "unit": "days"}
    ]}
  ]
}
